According to US20240180880A1, “METHODS OF USING EHMT2 INHIBITORS IN TREATING OR PREVENTING BLOOD DISORDERS” (Epizyme, Inc., priority 2017, published 2024):

Columns and labels:
[1] = tested on: Human CD34+ progenitor cells; assay: Human CD34+ progenitors assay for fetal hemoglobin induction, % HbF+ cells by FACS (healthy donors); assay type: cell-based; conditions: for Observed Induction of % HbF + Human Erythroid Progenitors: evaluated in the context of cell viability; for % HbF+ cells: 26% basal level
Source text: An in-vitro system to test the ability of compound to induce fetal hemoglobin expression was developed. This system used Human CD34+ progenitor cells freshly isolated from healthy donors blood collections. Peripheral blood mononuclear cells (PBMCs) were isolated from whole blood by density gradient centrifugation using SepMatem-50 and Lymphoprep™ from Stem Cell Technologies. CD34^+ hematopoietic progenitor cells (HSPCs) were isolated from PBMCs by magnetic separation using Stem Cells Technologies CD34+ positive selection/isolation kit (Stem Cell Technologies, #18056). CD34 cells were cultured using a 2-phase 14 day culture system. During phase 1 (day 0 to day 7) cells were expanded. Expansion was followed by phase 2 (day 7 to day 14) where cells were differentiated toward the erythroid lineage. Compounds were added on day 1 and day 7 as 1000× stock after being diluted in dimethyl sulfoxide (DMSO) in a 3-fold series. Final DMSO concentration in the assay was 0.1%. At day 14 cells were harvested for Fluorescent Activated Cell Sorting (FACS) analysis and for HbF quantitation by Mass spectrometry. For cell surface and intracellular marker analysis by FACS, cells were fixed and stained with a cocktail of antibodies covering erythroid lineage markers, HbF and H3 and H3K9me2 (Table 11). Data was collected using Canto II flow cytometer (BD Biosciences) and the FACSDiva software. Data was analyzed using FlowJo software. % HbF^+ cells and ratios H3/H3K9me2 intensities were calculated for CD71^+/CD235a^+ gated populations.
A list of pharmacological agents was evaluated for their potential to induce fetal Hemoglobin (HbF) in order to identify combination partners for our EHMT1/2 inhibitors. HbF can be induced by toxicity; therefore, the potential of the agents to induce HbF were evaluated in the context of cell viability. (Table 12). The EHMT1/2 inhibitor Compound 205 was evaluated in combination with a fixed dose of 10 μM Hydroxyurea and 0.1 μM Pomalidomide. […] 10 μM Hydroxyurea as a single agent was able to induce 01% HbF^+ cells from 26% basal level to 45% while 0.016 μM compound 205 as a single agent induced to 45%. In combination these two agents were able to induced % HbF^+ to 63% (FIG. 3A). […] 0.1 μM Pomalidomide as a single agent was able to induce ° % HbF cells from 26% basal level to 48% while 0.016 μM compound 205 as a single agent induced to 45%. In combination these two agents were able to induce % HbF^+ to 78% (FIG. 3B).
Hydroxyurea was also evaluated as single agent and in combination with the EHMT1/2 inhibitor compound 205 in a matrix format using CD34^+ cells isolated from a pool of 5 healthy donors. […] (FIG. 4 and FIG. 5, respectively). It is noted that for Loewe excess determination in Chalice, data was normalized to the highest and lowest Hbγ induction observed under the conditions and dose ranges in the assay.

[2] = tested on: human CD34+ progenitor cells isolated from SCD donors; assay: HbF pan-cellular induction by FACS in human CD34+ progenitor cells isolated from SCD donors; assay type: cell-based

Structure (SMILES)	Observed Induction of % HbF + Human Erythroid Progenitors [1]	further results
Nc1ccccc1NC(=O)c1ccc(CNC(=O)OCc2cccnc2)cc1 [Entinostat, entinostat]	Yes	
O=C(CCCCCCC(=O)Nc1ccccc1)NO [Vorinostat, vorinostat]	No	
CNc1cc(C)nc(Nc2ccc(OC)c(OC[C@H](O)CN3CCC3)c2)n1 [Compound D5R]		Fluorescence Intensity at which most of the positive cells are concentrated ([2]; 0.012 μM Compound D5R): ~10(3); % of HbF expressing cells ([2]; 0.012 μM Compound D5R, DMSO baseline 42.7%): 98.1%; % of HbF expressing cells ([2]; 10 μM Hydroxyurea in combination with 0.012 μM Compound D5R, DMSO baseline 42.7%): 99.8%; % HbF+ cells ([2]; Compound D5R dose response range (FIG. 6 ii-vi), DMSO baseline 42.7%): > 98%
NC(=O)NO [Hydroxyurea, hydroxyurea, reference compound]	Yes	% HbF+ cells ([1]; 10 μM Hydroxyurea as a single agent): 45%; Fluorescence Intensity at which most of the positive cells are concentrated ([2]; 10 μM Hydroxyurea): ~10(4); % of HbF expressing cells ([2]; 10 μM Hydroxyurea, DMSO baseline 42.7%): 78.1%
Clc1ccc2c(c1)CCc1cccnc1C2=C1CCNCC1 [Desloratidine, desloratidine]	No	
Nc1cccc2c1C(=O)N(C1CCC(=O)NC1=O)C2=O (stereo not shown) [Pomalidomide, pomalidomide]	Yes	% HbF+ cells ([1]; 0.1 μM Pomalidomide as a single agent): 48%
Nc1ccccc1NC(=O)c1cnccn1 [BG-45]	Yes	
NC(CO)C(=O)NNCc1ccc(O)c(O)c1O (stereo not shown) [Benzerazide]	Very small	
CN(C)C(=N)N=C(N)N [Metformin]	Yes	
